Assay results: article PMC7318222, “A Family of Water‐Immiscible, Dipolar Aprotic, Diamide Solvents from Succinic Acid” (Chemsuschem, 2020)

What was measured:
PPARδ = target: T1, PPARδ (Homo sapiens, UniProt Q03181); assay: PPARδ CALUX reporter gene assay; type: cell-based; set-up: key: –: no effect observed up to the highest test concentration; conditions: PC10, 24 h exposure
T1 construct: expression construct for the full-length human receptor under investigation; expressed in transfected cells; host or cells: human U2-OS cells (ATCC HTB-96), stably transfected
T1 sequence (Q03181 1-441): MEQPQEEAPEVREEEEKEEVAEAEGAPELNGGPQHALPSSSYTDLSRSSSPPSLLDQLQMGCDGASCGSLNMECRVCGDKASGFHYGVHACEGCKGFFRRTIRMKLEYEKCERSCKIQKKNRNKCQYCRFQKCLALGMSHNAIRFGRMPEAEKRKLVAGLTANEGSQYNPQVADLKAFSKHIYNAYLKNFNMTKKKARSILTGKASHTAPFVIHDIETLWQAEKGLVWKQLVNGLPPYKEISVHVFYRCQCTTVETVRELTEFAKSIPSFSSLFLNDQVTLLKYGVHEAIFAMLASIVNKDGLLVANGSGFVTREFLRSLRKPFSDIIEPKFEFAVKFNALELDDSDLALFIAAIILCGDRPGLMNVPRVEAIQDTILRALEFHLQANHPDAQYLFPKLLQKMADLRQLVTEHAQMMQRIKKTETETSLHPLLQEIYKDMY
From the text: nitroaniline ≥98.0% was purchased from Alfa Aeser. Cyrene was supplied by Circa group. N-butylpyrrolidinone was supplied by Eastman chemicals. […]
(§1) Polyarylethersulfone of 55,000 Da were obtained from INGE.BASF, Germany. The CALUX cell lines have been described previously.[1] They are based on human U2-OS cells (ATCC, HTB-96) stably transfected with an expression construct for the full-length human receptor under investigation, and a reporter construct consisting of multimerized responsive elements for the cognate receptor coupled to a minimal promoter element (TATA) and a luciferase gene. Cells were maintained as described previously,[2] using cell culture media and supplements from Fisher Scientific as described in the experimental procedures section. […]
(§2) In vitro reporter gene assays
(§3) The automated CALUX assays were carried out similarly as described earlier,[12] with some adaptations. In brief, the assay was performed in CO2 independent medium (Fisher Scientific, […]
(§4) with 30 µl cell suspension/well. After 24 h, exposure medium was prepared. A dilution series in 0.5log unit increments of each test compound (in DMSO) was added to a 96-wells plate containing assay medium (2% v/v). Of this exposure mixture, 30 µl was added to the assay plates containing the CALUX cells, resulting in a final DMSO concentration of 1%. Additionally, DMSO blanks and a full dose response curve of the relevant reference compound were included on each plate. All samples were tested in triplicate. The preparation of the compound dilution series as well as the exposure of the cells were performed on a Hamilton StarLET liquid handling robot coupled to a Cytomat incubator.
Directly after exposure, plates were sealed with non-breathing plate seals (Plate sealer, easy seal […]
After 24 h the exposure medium was removed using an EL406 washer-dispenser (BioTek) and 10 µl/well triton lysisbuffer was added by the EL406.
(§5) Subsequently, the luciferase signal was measured in a luminometer (InfinitePro coupled to a Connect Stacker, both TECAN). In order to be able to detect receptor antagonism, several assays were also performed in antagonistic mode. The assay procedure was as described above, with the only exception that the EC50 concentration of the reference agonist was present during the exposure.
The luminometer data was analysed as follows; the average of the triplicate wells was determined, […]

human U2-OS cells = assay: CALUX cytotoxicity assay; type: cell-based; conditions: for LEC cytotoxicity: PC20, 24 h exposure
From the text: as §1, with “DCM ≥99.5%, chloroform ≥99.5%, DMSO ≥99.0% were purchased from VWR. N,N-diethyl-4-nitroaniline ≥98.0% was purchased from Alfa Aeser. Cyrene was supplied by Circa group. N-butylpyrrolidinone was supplied by Eastman chemicals. N,N-dimethylformamide 99.9% and N,N-dimethylacetamide 99.9% were purchased from Fischer. The flakes of Ultrason® E3020 P Polyarylethersulfone” for “Polyarylethersulfone”
as §2, §3
as §4, with “supplement (Fisher Scientific, 11574466), 10 U/mL penicillin and 10 µg/mL streptomycin. A cell suspension in assay medium was made of 1 × 10^5cells/mL, and white 384-wells plates were seeded with” for “with”
Directly after exposure, plates were sealed with non-breathing plate seals (Plate sealer, easy seal transparent; Greiner-Bio-One, 676001). After 24 h the exposure medium was removed using an EL406 washer-dispenser (BioTek) and 10 µl/well triton lysisbuffer was added by the EL406.
as §5
The luminometer data was analysed as follows; the average of the triplicate wells was determined, and the average blank (DMSO) value was subtracted. For receptor-based assays the maximum response elicited by the reference compound was set to 100% (full receptor- or pathway activation), and the other values were scaled accordingly. GraphPad Prism was used to fit a sigmoidal curve through the data (four parameters, variable slope). The PC10 concentration was reported as the lowest effect concentration (LEC), which is defined as the concentration where the response elicited by the test compound equals 10% of the maximum response of the reference compound. For antagonist- and cytotoxicity experiments, PC20 values were determined instead, which was defined as the concentration where the test compound causes a 20% decrease in the basal signal, which was […]
curve, the signal induction above background (DMSO) was determined, and the concentration where the compound elicited a 1.5-fold increase above background was used as LEC.

## CCCCN(CC)C(=O)CCC(=O)N(CC)CCCC [EBSA, N,N′‐diethyl‐N,N′‐dibutylsuccindiamide]
PPARδ
  LEC PPARδ: –
Human U2-OS cells
  LEC cytotoxicity: −3.1 Log M

## CCCCN(C)C(=O)CCC(=O)N(C)CCCC [MBSA, N,N′‐dimethyl‐N,N′‐dibutylsuccindiamide]
PPARδ
  LEC PPARδ: –
Human U2-OS cells
  LEC cytotoxicity: −2.3 Log M

## CCCCN1CCCC1=O [NBP, N‐Butylpyrrolidinone, reference compound]
PPARδ
  LEC PPARδ: −2.3 Log M
Human U2-OS cells
  LEC cytotoxicity: −2.1 Log M

## CN1CCCC1=O [NMP, N‐methyl‐2‐pyrrolidone, reference compound]
Human U2-OS cells
  cytotoxicity lowest effect concentration (LEC): 40 mM
  LEC cytotoxicity: −1.4 Log M

## CCCCN(CCCC)C(=O)CCC(=O)N(CCCC)CCCC [TBSA, N,N,N′,N′‐tetrabutylsuccindiamide]
PPARδ
  LEC PPARδ: –
Human U2-OS cells
  LEC cytotoxicity: −3.4 Log M
